From patent US20060008506A1, “Method for preparing therapeutic ophthalmic articles using compressed fluids” (priority 2004, published 2006)

Legend:
[1] = in vitro release kinetic study of impregnated Focus Dailies (Nelfilcon A) hydrogel contact lenses after three-month storage; type: physicochemical; conditions: for maximum cumulative amount of released Flurbiprofen: CO2, 41° C., after three months storage in 0.9% NaCl
Experimental: Later on, the impregnated ophthalmic article was placed in 5 ml of physiological serum (saline solution, 0.9% NaCl) inside a closed vessel. This vessel was subsequently placed inside a temperature controlled bath (at 37° C.), in order to carry out the in vitro sustained release kinetic study of the drug (Flurbiprofen). At regular time intervals (shorter time intervals at the beginning), 3 ml of the release solution (containing the released drug) were removed from the vessel and replaced by 3 ml of fresh physiological serum. The concentration of Flurbiprofen was determined by spectroscopy for each sample collected. Two Focus® […]® (Ciba Vision, Ga., USA) hydrogel contact lenses (non ionic, high hydration, FDA Group II, 69% water+31% Nelfilcon A copolymer) were separately treated in two different experiments (I and II) by means of the above-mentioned third embodiment of the process, in accordance with the invention and according to FIG. 3. In both experiments, the ophthalmic articles processed were impregnated with Flurbiprofen (CAS[5104-49-4], 97% purity, Sigma-Aldrich) using Carbon Dioxide (99.998% purity, Air Liquide). No co-solvent was added and no stirring was employed. In experiment I, the operating conditions were 41° C. and 90 bar, while in experiment II the operating conditions were 41° C. and 120 bar. In both experiments, drug solubilization was carried out for 1 hour and 30 minutes, and impregnation was carried out for 1 hour. After impregnation, the vessel was slowly depressurized (for 15 minutes) and the compressed fluid (Carbon Dioxide) was removed. The high pressure vessel was then removed from the temperature controlled bath, opened and the ophthalmic article was recovered, impregnated with Flurbiprofen. Afterwards, the two ophthalmic articles were stored and preserved in physiological serum (saline solution, 0.9% NaCl) in closed vessels, for three months. After this period, in vitro kinetic studies were carried out in respect of Flurbiprofen release, following the experimental procedures already described at Example 1.

[2] = in vitro sustained release kinetic study of impregnated Focus Monthly (Vifilcon A) hydrogel contact lens in physiological serum; type: physicochemical; conditions: 90.0 bar, 40.0° C.; for release time at which maximum cumulative amount was attained: 0.9% NaCl at 37° C.; for maximum cumulative amount of released Flurbiprofen: 30 min
Experimental: A Focus® Monthly® (Ciba Vision, Ga., USA) hydrogel contact lens (ionic, high hydration, FDA Group IV, 55% water+45% Vifilcon A copolymer) was treated by means of the above-mentioned first embodiment of the process, in accordance with the invention and according to FIG. 1. The ophthalmic article was contacted in a sealed high pressure vessel with a mixture of compressed carbon Dioxide (99.998% purity, Air Liquid), Flurbiprofen (CAS[5104-49-4], 97% purity, Sigma-Aldrich) and Ethanol (CAS[64-17-5], 99.8% purity, Fluka), as co-solvent (5% molar in respect of carbon Dioxide). The operating conditions were 90.0 bar and 40.0° C. No stirring was employed. After a 30 minute processing time, the vessel was slowly expanded (for 1.5 minutes) and the compressed fluid (carbon Dioxide) was removed. Part of the co-solvent (Ethanol) was dragged out of the system by the Carbon Dioxide, while its remaining part precipitated, as a liquid, to the bottom of the high pressure vessel. The high pressure vessel was then removed from the temperature controlled bath, opened and the ophthalmic article was recovered, impregnated with Flurbiprofen. Later on, the impregnated ophthalmic article was placed in 5 ml of physiological serum (saline solution, 0.9% NaCl) inside a closed vessel. This vessel was subsequently placed inside a temperature controlled bath (at 37° C.), in order to carry out the in vitro sustained release kinetic study of the drug (Flurbiprofen). At regular time intervals (shorter time intervals at the beginning), 3 ml of the release solution (containing the released drug) were removed from the vessel and replaced by 3 ml of fresh physiological serum. The concentration of Flurbiprofen was determined by spectroscopy for each sample collected. A Focus® Monthly® (Ciba Vision, Ga., USA) hydrogel contact lens (ionic, high hydration, FDA Group IV, 55% water+45% Vifilcon A copolymer) was treated by means of the above-mentioned first embodiment of the process, in accordance with the invention and according to FIG. 1. The ophthalmic article was contacted in a sealed high pressure vessel with a mixture of Carbon Dioxide (99.998% purity, Air Liquide) and Flurbiprofen (CAS[5104-49-4], 97% purity, Sigma-Aldrich). No co-solvent was added. The operating conditions were 90.0 bar and 40.0° C. No stirring was employed. After a 30 minute processing time, the vessel was slowly expanded (for 15 minutes) and the compressed fluid (Carbon Dioxide) was removed. The high pressure vessel was then removed from the temperature controlled bath, opened and the ophthalmic article was recovered, impregnated with Flurbiprofen. The in vitro kinetic studies concerning the release of Flurbiprofen were conducted in accordance with the experimental procedures already described at Example 1.

baboons = conditions: single dose of 125 mg/Kg; cited from earlier work
[3] = analysis of preservation and storage media after three-month storage of impregnated Focus Dailies lenses; type: physicochemical; conditions: for effective total mass of Flurbiprofen impregnated in the article: sum of storage and release amounts; for mass of Flurbiprofen released in preservation and storage media: three-month storage in 0.9% NaCl
Experimental: Afterwards, the two ophthalmic articles were stored and preserved in physiological serum (saline solution, 0.9% NaCl) in closed vessels, for three months. After this period, in vitro kinetic studies were carried out in respect of Flurbiprofen release, following the experimental procedures already described at Example 1.
The maximum cumulative amount of released Flurbiprofen was about 0.007 mg for experiment I and about 0.035 mg for experiment II. These amounts were actually attained after 7 hours of release kinetic studies. […] However, in these cases it cannot be assumed that these values correspond to the total amount of Flurbiprofen impregnated in each ophthalmic article, given that part of the impregnated drug was released in the preservation medium during the three-month storage period. Preservation and storage media were also analyzed and the mass of Flurbiprofen released therein was about 0.0030 mg for experiment I and about 0.0025 mg for experiment II. Therefore, we can assume that the effective total mass of Flurbiprofen impregnated in the two articles was 0.0100 mg and 0.0375 mg respectively for experiments I and II.

inflammatory processes = conditions: cited from earlier work

SMILES: CC(C(=O)O)c1ccc(-c2ccccc2)c(F)c1 (stereo not shown) [Flurbiprofen]
- maximum cumulative amount of released Flurbiprofen ([1]; Example 3, experiment I: Focus Dailies lens, 90 bar): about 0.007 mg
- maximum cumulative amount of released Flurbiprofen ([1]; Example 3, experiment II: Focus Dailies lens, 120 bar): about 0.035 mg
- release time at which maximum cumulative amounts were attained ([1]; Example 3, experiments I and II): 7 h
- release time at which maximum cumulative amount was attained ([2]; Example 1: CO2 + ethanol co-solvent): 24 h
- maximum cumulative amount of released Flurbiprofen ([2]; Example 1: Focus Monthly lens impregnated with CO2 + 5% molar ethanol co-solvent, release in 5 ml 0.9% NaCl at 37° C.): about 0.25 mg
- release time at which maximum cumulative amount was attained ([2]; Example 2: CO2, no co-solvent): 6 h
- maximum cumulative amount of released Flurbiprofen ([2]; Example 2: Focus Monthly lens impregnated with CO2, no co-solvent, release in 0.9% NaCl at 37° C.): about 0.11 mg
- acute toxicity (baboons): no acute toxicity
- effective total mass of Flurbiprofen impregnated in the article ([3]; Example 3, experiment I (41° C., 90 bar)): 0.0100 mg
- mass of Flurbiprofen released in preservation and storage media ([3]; Example 3, experiment I (90 bar)): about 0.0030 mg
- effective total mass of Flurbiprofen impregnated in the article ([3]; Example 3, experiment II (41° C., 120 bar)): 0.0375 mg
- mass of Flurbiprofen released in preservation and storage media ([3]; Example 3, experiment II (120 bar)): about 0.0025 mg
- minimum amount of Flurbiprofen to be kept in the eye to prevent inflammatory processes (inflammatory processes): 0.03 to 0.15 µg
